Test results published in patent US20030064413A1, “Compositions and methods useful in avidity therapy” (priority 2000, published 2003).
“Also recorded” adds a separate entry of the source. Peptide text beside a SMILES is read from it.

Legend:
[1] = system: naïve or activated 8.3-CD8+ T cells; experiment: Functional testing of NRP mimics (proliferation, cytokine secretion, cytotoxicity, antagonism); assay type: cell-based, mouse (8.3-TCRαβ-transgenic NOD)
Source text: To test the validity of this hypothesis, we produced mimics of NRP capable of engaging the 8.3-TCR (a TCR that is representative of the TCRs used by NRP-reactive CD8^+ T cells in the NOD mouse) with very low or very high affinity (when compared to NRP and NRP-A7). This was done by generating numerous single amino acid mutants of NRP (NRP mimics) and by testing the ability of each mutant to elicit proliferation, cytokine secretion and cytotoxicity of naïve or activated 8.3-CD8^+ T cells. Some of the NRP mimics that were unable to elicit the activation of naïve 8.3-CD8^+ T cells were tested for antagonism. Antagonist mimics are unable to elicit the functional activity of T cells but antagonized the agonistic activity of functional mimics (i.e. NRP and NRP-A7). […] Of these, NRP-A4 was the most powerful and was chosen for further experimentation. […] FIG. 15 compares the agonistic properties of all these peptides on naïve 8.3-CD8^+ T cells.
To test the validity of this hypothesis, we produced mimics of NRP capable of engaging the 8.3-TCR (a TCR that is representative of the TCRs used by NRP-reactive CD8^+ T cells in the NOD mouse) with very low or very high affinity (when compared to NRP and NRP-A7). This was done by generating numerous single amino acid mutants of NRP (NRP mimics) and by testing the ability of each mutant to elicit proliferation, cytokine secretion and cytotoxicity of naïve or activated 8.3-CD8^+ T cells. Some of the NRP mimics that were unable to elicit the activation of naïve 8.3-CD8^+ T cells were tested for antagonism. Antagonist mimics are unable to elicit the functional activity of T cells but antagonized the agonistic activity of functional mimics (i.e. NRP and NRP-A7). […] Peptide-induced responses are color-coded from low, medium, […], high and very high (blue, yellow, green and red, respectively). The data are representative of 3 different experiments.
Of these, NRP-A4 was the most powerful and was chosen for further experimentation. […] FIG. 15 compares the agonistic properties of all these peptides on naïve 8.3-CD8^+ T cells.

[2] = system: 8.3-TCR on 8.3-CD8+ T cells; experiment: Peptide/MHC tetramer binding to 8.3-CD8+ T cells; set-up: species or system mouse (8.3-TCRαβ-transgenic NOD)
Source text: (§1) To confirm that these peptides were recognized with different avidity by 8.3-CD8^+ T cells, we produced and tested peptide/MHC tetramers as previously described (39). A tetramer is preferably used in avidity determinations because tetramers bind more strongly than the corresponding monomers, while maintaining the same relative avidities when a plurality of ligands are compared. […] These peptides were recognized with different avidity not only by 8.3-CD8^+ T cells, but also by the polyclonal NRP-reactive CD8^+ T cells that can be propagated from the pancreatic islets of 20 wk-old NOD mice.
(§2) In order to follow the accumulation of antigen-specific CD8^+ T cells in islets of pre-diabetic NOD mice, we generated H-2Kd tetramers containing the peptides NRP, NRP-A7, TUM or INS [LYLVCGERG; an insulin-derived peptide recognized by islet-associated T cells from young NOD mice (38)]. The NRP and NRP-A7 tetramers stained virtually all the splenic CD8^+ T cells from 8.3-TCRαβ-transgenic NOD mice, but <1% of the splenic CD8^+ T cells from NOD mice. The INS tetramer stained the INS-reactive CTL clone G9C8 (38), but neither this tetramer nor the negative control tetramer (TUM) stained the splenic CD8^+ T cells from NOD or 8.3-TCRαβ-transgenic NOD mice (data not shown).
To confirm that these peptides were recognized with different avidity by 8.3-CD8^+ T cells, we produced and tested peptide/MHC tetramers. […] These peptides were recognized with different avidity not only by 8.3-CD8^+ T cells, but also by the polyclonal NRP-reactive CD8^+ T cells that can be propagated from the pancreatic islets of 20 wk-old NOD mice.

[3] = system: islet-derived CD8+ T cells; experiment: Peptide/H-2Kd tetramer staining of islet-derived CD8+ T cells; assay type: binding, NOD mice
Source text: as §1
Since tetramer-reactive cells represent a very small fraction of all the islet-associated T cells, we analyzed the presence of tetramer-reactive clonotypes within the cell population that has undergone antigen-driven activation and thus is likely to contain autoreactive specificities. Islets from non-diabetic 5, 9, 15 and 20 wk-old NOD mice were cultured in the presence of rIL-2 for 6-7 d, to selectively expand IL-2R-positive T cells [˜10% of all the islet-associated CD8^+ T cells (30)]. There were age-dependent increases in the number of T cells recovered from NOD islets and in the % of CD8^+ T cells contained within lines. […]

[4] = system: CD8+ T cells propagated from islets of acutely diabetic NOD mice; experiment: Killing of peptide-pulsed RMA-SKd cells by islet-derived CD8+ T cell lines and clones; assay type: cell-based
Source text: To confirm that the islet associated CD8^+ T cells of most NOD mice contain clones capable of recognizing the NRP/Kd complex, we generated 31 CD8^+ CTL clones from islets of 9 NOD mice, and tested the clones' ability to kill NRP- or TUM-pulsed RMA-SKd cells. Of the 31 clones tested, 14 (45%) were cytotoxic against NRP-, but not TUM-pulsed, RMA-SKd targets (FIGS. 7B and C).

NOD mice = experiment: Development of spontaneous autoimmune diabetes in peptide-treated NOD female mice; assay type: in vivo
Source text: To test whether the hypothesis could in fact predict the different outcomes outlined in Table I, we treated groups of NOD female mice with repeated injections of NRP-A4, NRP-I4 and NRP-V7, and followed the mice for development of spontaneous autoimmune diabetes. T cells were also harvested from the treated mice and tested with various ligand/MHC tetramers to determine the impact of the treatment on T cell populations. […] Since these cells have higher diabetogenic potential (see above), it is likely that their accumulation into islets is the single mechanism that accounts for the accelerated onset of diabetes seen in NRP-I4-treated mice. […]
The hypothesis put forth above predicted that, in vivo, each of these peptides would trigger T cells differently depending on the T cells' avidity for NRP. This is summarized in Table I. To test whether the hypothesis could in fact predict the different outcomes outlined in Table I, we treated groups of NOD female mice with repeated injections of NRP-A4, NRP-I4 and NRP-V7, and followed the mice for development of spontaneous autoimmune diabetes. […] Since these cells have higher diabetogenic potential (see above), it is likely that their accumulation into islets is the single mechanism that accounts for the accelerated onset of diabetes seen in NRP-I4-treated mice.
To test the effect of dosage of the peptide ligands on T cell clonal delection or expansion, we treated groups of NOD female mice with repeated injections of “low” or “high” doses of TUM (negative control), NRP, NRP-A7, NRP-A4, NRP-I4 and NRP-V7. Low concentrations of peptide were prepared by resuspending 100 mg of dry peptide in PBS in the absence of acids. The peptides in these preparations, which were also used in previous Examples, are aggregated, and the effective concentrations were low. Soluble, high concentrations of peptide were prepared by diluting 100 mg of soluble peptide (solubilized in the presence of acid) in PBS. The mice were followed for development of spontaneous autoimmune diabetes.

[5] = system: NRP-A7-reactive CD8+ T cells; experiment: Islet-associated CD8+ T cells of peptide-treated NOD mice (tetramer staining, binding kinetics, cytotoxicity); assay type: in vivo
Source text: To test whether the hypothesis could in fact predict the different outcomes outlined in Table I, we treated groups of NOD female mice with repeated injections of NRP-A4, NRP-I4 and NRP-V7, and followed the mice for development of spontaneous autoimmune diabetes. T cells were also harvested from the treated mice and tested with various ligand/MHC tetramers to determine the impact of the treatment on T cell populations. […] Since these cells have higher diabetogenic potential (see above), it is likely that their accumulation into islets is the single mechanism that accounts for the accelerated onset of diabetes seen in NRP-I4-treated mice.
To ascertain whether the NRP-A7 treatment had induced the deletion of NRP-A7-reactive CD8^+ T cells, we examined islets of peptide-treated, non-diabetic 32 wk-old mice for the presence of this T cell population. […] To determine whether this resulted from the absence of clonotypes bearing high affinity TCRs for NRP-A7, we compared the kinetics of NRP-A7 tetramer binding to CD8^+ T cells derived from peptide-treated mice. […] Since treatment with NRP-A7 also halted the progression from benign to pernicious islet inflammation, we concluded that development of IDDM in NOD mice requires the avidity maturation of the NRP-A7-reactive CD8^+ T cell population.
The effect of the peptides on T cell populations was also determined.

8.3-CD8+ T cells = experiment: Repeated peptide administration to 8.3-TCRαβ-transgenic NOD mice; assay type: in vivo; conditions: repeated administration via i.p. and f.p. routes; unpublished data
[6] = system: INS-reactive CTL clone G9C8; experiment: Tetramer staining of CTL clone G9C8; assay type: binding; conditions: H-2Kd tetramer
Source text: as §2

With KYNKANAFL [NRP-A7] the “functional class of the peptide on 8.3-CD8+ T cells” value [1] was “super-agonist”, the Function ([1]; Table I) was “superagonist” and the “Function (of Function/Avidity)” value ([1]; Table II) was “superagonist”. For the same molecule, the “agonistic/antagonistic activity, comparative statement” value ([1]; naive 8.3-CD8+ T cells) was “superior agonistic properties”, the “avidity class of the peptide” value [2] was “high avidity” and the “Avidity (of Function/Avidity)” value ([2]; Table II) was “high”. For the same molecule, the “avidity of tetramer binding to 8.3-CD8+ T cells” value ([2]; peptide/MHC tetramer, proportional to fluorescence intensity of stained T cells) was “increased avidity”, the “splenic CD8+ T cells stained by tetramer” value ([2]; splenic CD8+ T cells from 8.3-TCRαβ-transgenic NOD mice) was “virtually all” and the “size of the tetramer-reactive CD8+ T cell population in islets” value ([3]; by 15 wk, islets cultured with rIL-2 6-7 d) was about 18%. For the same molecule, the “number of islet-derived CD8+ T cells bound by tetramer, comparative” value ([3]; islets of 20 wk-old NOD mice) was “more cells bound the NRP-A7 than the NRP tetramers”, the “islet-associated CD8+ T cell clones recognizing the peptide” value ([4]; reference 37) was 45% and the “islet-associated CD8+ T cell lines recognizing the peptide” value ([4]; reference 37) was 87%. For the same molecule, the “Action (high dose)” value (NOD mice; Table II, effect on diabetes, high dose, repeated injections) was “No effect”, the “Action (low dose)” value (NOD mice; Table II, effect on diabetes, low dose, repeated injections) was “protective” and the “effect on diabetes at high dose/concentration” value (NOD mice; high concentration (acid-solubilized peptide in PBS), repeated injections) was “no effect; also recorded: rather ineffective; also recorded: did not efficiently protect the mice from diabetes”. The “effect on diabetes at low dose/concentration” value (NOD mice; low concentration (aggregated peptide in PBS), repeated injections) was “anti-diabetogenic; also recorded: significant protective effect; also recorded: diabetes resistance”, the “development of IDDM/diabetes in treated NOD mice” value (NOD mice; repeated injections (100 μg in PBS i.p. in Example 6), low dosage according to b141) was “highly protected” and the “cytotoxicity of islet-derived CD8+ T cells of treated mice” value ([5]; NRP-A7-pulsed RMA-SKd targets) was “less cytotoxic to NRP-A7-pulsed, RMA-SKd targets than those derived from NRP- or control peptide-treated mice”. The “insulin 15-23-reactive CD8+ T cells in islets of treated mice” value ([5]; b198: high concentration NRP-A7, low and high concentrations NRP-V7) was “significantly increased percentages of insulin 15-23 tetramer-reactive CD8^+ T-cells”, the “effect on NRP-A7-reactive T cells in islets, high concentration” value ([5]; high concentration) was “nearly complete deletion of all NRP-A7-reactive cells” and the “effect on NRP-A7-reactive T cells in islets, low concentration” value ([5]; low concentration) was “fostered the accumulation of low avidity NRP-A7-reactive T-cells in islets”. For the same molecule, the “effect of treatment on high/low avidity NRP-reactive CD8+ T cell subpopulations (conclusion)” value ([5]; repeated injections) was “blunted the avidity maturation of the NRP-A7-reactive CD8^+ T cell population; also recorded: promoted the expansion of the low avidity T cell subpopulation; also recorded: selectively eliminated those NRP-A7-reactive CD8^+ T cells expressing high affinity TCRs for NRP-A7”, the “NRP/NRP-A7 tetramer-reactive CD8+ T cells in islets of treated mice” value ([5]; repeated injections, low dosage according to b141) was “greater numbers of NRP-A7 tetramer-reactive cells than control peptide-treated mice” and the “effect on 8.3-CD8+ T cells” value (8.3-CD8+ T cells) was “induced the deletion of 8.3-CD8^+ T cells”.
`CC(C)C[C@H](NC(=O)[C@H](Cc1ccccc1)NC(=O)[C@H](Cc1c[nH]c2ccccc12)NC(=O)[C@H](CC(N)=O)NC(=O)[C@H](C)NC(=O)[C@H](CCCCN)NC(=O)[C@H](CC(N)=O)NC(=O)[C@H](Cc1ccc(O)cc1)NC(=O)[C@@H](N)CCCCN)C(=O)O` [NRP, KYNKANWFL] (H-KYNKANWFL-OH; N-terminus and C-terminus assumed) was tested, and the “islet-derived CD8+ CTL clones cytotoxic against peptide-pulsed RMA-SKd targets” value ([4]; 14 of 31 clones from 9 NOD mice) was 45%.
In the case of “LYLVCGERG [INS, insulin-derived peptide recognized by islet-associated T cells from young NOD mice]”, the “tetramer staining of CTL clone G9C8” value [6] is reported as “stained”.
